The test concerns the target Carbonic anhydrase 2 (Homo sapiens, UniProt P00918). Nature of the test: Dissociation constant against human carbonic anhydrase II at 37 degree Centigrade.
Usually Kd stands for the constant that tells how readily two partners part at equilibrium. The low end stands for tighter binding, the high end for weaker binding. Turning to `NC(=O)CC[C@H](NC(=O)CNC(=O)CNC(=O)CNC(=O)c1ccc(S(N)(=O)=O)cc1)C(=O)O`, the Kd was 280 nM.
To `NS(=O)(=O)c1ccc(C(=O)NCC(=O)NCC(=O)NCC(=O)N[C@@H](Cc2ccc3ccccc3c2)C(=O)O)cc1` belongs 160 nM; to `CSCCC(NC(=O)CNC(=O)c1ccc(S(N)(=O)=O)cc1)C(=O)O` (configuration not stated), 160 nM; to `N=C(N)NCCCC(NC(=O)CNC(=O)c1ccc(S(N)(=O)=O)cc1)C(=O)O` (configuration not stated), 190 nM.
As for `CSCCC(NC(=O)c1ccc(S(N)(=O)=O)cc1)C(=O)O` (configuration not stated), the figure is 10 nM.
In turn, `NS(=O)(=O)c1ccc(C(=O)NCC(=O)NCC(=O)NCC(=O)N[C@@H](Cc2ccc([N+](=O)[O-])cc2)C(=O)O)cc1` came in with a Kd of 160 nM.
As for `CC(C)(C)[C@H](NC(=O)CNC(=O)CNC(=O)c1ccc(S(N)(=O)=O)cc1)C(=O)O`, the figure is 240 nM.
As for `NS(=O)(=O)c1ccc(C(=O)NCC(=O)NCC(=O)O)cc1`, the figure is 290 nM; as for `NS(=O)(=O)c1ccc(C(=O)NCC(=O)NC(CC(=O)O)C(=O)O)cc1` (configuration not stated), 420 nM; as for `COc1ccc(C[C@H](NC(=O)CNC(=O)CNC(=O)c2ccc(S(N)(=O)=O)cc2)C(=O)O)cc1`, 170 nM.
As for `CSCC[C@@H](NC(=O)CNC(=O)CNC(=O)CNC(=O)c1ccc(S(N)(=O)=O)cc1)C(=O)O`, the figure is 220 nM; as for `NS(=O)(=O)c1ccc(C(=O)NC(Cc2ccc(F)cc2)C(=O)O)cc1` (configuration not stated), 17 nM; as for `NS(=O)(=O)c1ccc(C(=O)NCC(=O)NC(Cc2ccc(Cl)cc2)C(=O)O)cc1` (configuration not stated), 100 nM.
For the compound `CC(C)C(NC(=O)c1ccc(S(N)(=O)=O)cc1)C(=O)O` (configuration not stated), the Kd amounted to 15 nM.
As for `NC(=O)CC(NC(=O)CNC(=O)c1ccc(S(N)(=O)=O)cc1)C(=O)O` (configuration not stated), the figure is 290 nM; as for `C[C@H](NC(=O)CNC(=O)CNC(=O)c1ccc(S(N)(=O)=O)cc1)C(=O)O`, 250 nM.
As for `NS(=O)(=O)c1ccc(C(=O)N2CCCC2C(=O)O)cc1` (configuration not stated), the figure is 230 nM; as for `NS(=O)(=O)c1ccc(C(=O)NC(CO)C(=O)O)cc1` (configuration not stated), 240 nM; as for `CCCC[C@H](NC(=O)CNC(=O)CNC(=O)c1ccc(S(N)(=O)=O)cc1)C(=O)O`, 140 nM.
To `NS(=O)(=O)c1ccc(C(=O)NCC(=O)NC(Cc2ccc([N+](=O)[O-])cc2)C(=O)O)cc1` (configuration not stated) belongs 150 nM; to `CC(C)(C)C(NC(=O)CNC(=O)c1ccc(S(N)(=O)=O)cc1)C(=O)O` (configuration not stated), 150 nM.
With `COc1ccc(CC(NC(=O)c2ccc(S(N)(=O)=O)cc2)C(=O)O)cc1` (configuration not stated), the Kd was determined as 27 nM. Against the preceding compound, the Kd is about 5.6-fold lower.
As for `NS(=O)(=O)c1ccc(C(=O)NCC(=O)NCC(=O)N[C@@H](CO)C(=O)O)cc1`, the figure is 290 nM; as for `C[C@@H](O)[C@H](NC(=O)CNC(=O)CNC(=O)CNC(=O)c1ccc(S(N)(=O)=O)cc1)C(=O)O`, 330 nM.
As for `CC[C@H](C)[C@H](NC(=O)CNC(=O)CNC(=O)c1ccc(S(N)(=O)=O)cc1)C(=O)O`, the figure is 230 nM.
As for `NC(=O)CCC(NC(=O)CNC(=O)c1ccc(S(N)(=O)=O)cc1)C(=O)O` (configuration not stated), the figure is 240 nM; as for `COc1ccc(C[C@H](NC(=O)CNC(=O)CNC(=O)CNC(=O)c2ccc(S(N)(=O)=O)cc2)C(=O)O)cc1`, 170 nM.
`NS(=O)(=O)c1ccc(C(=O)NCC(=O)NCC(=O)NCC(=O)N[C@@H](CO)C(=O)O)cc1` displayed a Kd of 360 nM. Against the preceding compound, the Kd is about 2.1-fold higher.
Turning to `CC(C)CC(NC(=O)CNC(=O)c1ccc(S(N)(=O)=O)cc1)C(=O)O` (configuration not stated), the Kd was determined as 130 nM.
For `NS(=O)(=O)c1ccc(C(=O)NCC(=O)NC(Cc2ccc3ccccc3c2)C(=O)O)cc1` (configuration not stated), the affinity, expressed as Kd, was 130 nM. That is a sub-micromolar value.
To `NC(=O)CC[C@H](NC(=O)CNC(=O)CNC(=O)c1ccc(S(N)(=O)=O)cc1)C(=O)O` belongs 270 nM; to `NS(=O)(=O)c1ccc(C(=O)NCC(=O)NCC(=O)N[C@@H](CCC(=O)O)C(=O)O)cc1`, 372 nM; to `NC(=O)CCC(NC(=O)c1ccc(S(N)(=O)=O)cc1)C(=O)O` (configuration not stated), 140 nM.
As for `NS(=O)(=O)c1ccc(C(=O)NCC(=O)NCC(=O)NC(Cc2ccc3ccccc3c2)C(=O)O)cc1` (configuration not stated), the figure is 160 nM.
To `NS(=O)(=O)c1ccc(C(=O)NC(CC(=O)O)C(=O)O)cc1` (configuration not stated) belongs 1100 nM.
`NS(=O)(=O)c1ccc(C(=O)NCC(=O)NC(CCC(=O)O)C(=O)O)cc1` (configuration not stated) returned an equilibrium dissociation constant (Kd) of 500 nM.
With `NC(=O)C[C@H](NC(=O)CNC(=O)CNC(=O)CNC(=O)c1ccc(S(N)(=O)=O)cc1)C(=O)O`, the dissociation constant Kd came out at 290 nM. This Kd lies about 1.7-fold lower than the previous one.
To `CC(C)[C@H](NC(=O)CNC(=O)CNC(=O)CNC(=O)c1ccc(S(N)(=O)=O)cc1)C(=O)O` belongs 290 nM; to `CC(C)(C)[C@H](NC(=O)CNC(=O)CNC(=O)CNC(=O)c1ccc(S(N)(=O)=O)cc1)C(=O)O`, 210 nM; to `NC(=O)CC(NC(=O)c1ccc(S(N)(=O)=O)cc1)C(=O)O` (configuration not stated), 380 nM.
Consider `N=C(N)NCCC[C@H](NC(=O)CNC(=O)CNC(=O)c1ccc(S(N)(=O)=O)cc1)C(=O)O`, for which the dissociation constant (Kd) stood at 300 nM.
As for `NS(=O)(=O)c1ccc(C(=O)NCC(=O)NCC(=O)NCC(=O)N2CCC[C@H]2C(=O)O)cc1`, the figure is 330 nM; as for `CSCC[C@@H](NC(=O)CNC(=O)CNC(=O)c1ccc(S(N)(=O)=O)cc1)C(=O)O`, 160 nM.
To `CCC(C)C(NC(=O)CNC(=O)c1ccc(S(N)(=O)=O)cc1)C(=O)O` (configuration not stated) belongs 160 nM; to `NS(=O)(=O)c1ccc(C(=O)NCC(=O)NCC(=O)N[C@@H](Cc2ccc([N+](=O)[O-])cc2)C(=O)O)cc1`, 130 nM; to `CC(O)C(NC(=O)CNC(=O)c1ccc(S(N)(=O)=O)cc1)C(=O)O` (configuration not stated), 320 nM.
`CC(C)CC(NC(=O)c1ccc(S(N)(=O)=O)cc1)C(=O)O` (configuration not stated) gave a Kd of 9 nM.
Regarding `C[C@@H](O)[C@H](NC(=O)CNC(=O)CNC(=O)c1ccc(S(N)(=O)=O)cc1)C(=O)O`, binding was characterised by a dissociation constant (Kd) of 330 nM. Compared with the last compound, the Kd is about 37-fold higher.
`Nc1ccc(CC(NC(=O)CNC(=O)c2ccc(S(N)(=O)=O)cc2)C(=O)O)cc1` (configuration not stated) returned an equilibrium dissociation constant (Kd) of 330 nM.
The compound `NS(=O)(=O)c1ccc(C(=O)NC(Cc2ccc3ccccc3c2)C(=O)O)cc1` (configuration not stated) showed a Kd of 17 nM.
To `CC(O)C(NC(=O)c1ccc(S(N)(=O)=O)cc1)C(=O)O` (configuration not stated) belongs 53 nM.
To `NS(=O)(=O)c1ccc(C(=O)NCC(=O)NCC(=O)N2CCC[C@H]2C(=O)O)cc1` belongs 340 nM; to `NS(=O)(=O)c1ccc(C(=O)NCC(=O)NCC(=O)N[C@@H](CC(=O)O)C(=O)O)cc1`, 400 nM; to `CCCCC(NC(=O)CNC(=O)c1ccc(S(N)(=O)=O)cc1)C(=O)O` (configuration not stated), 140 nM.
As for `C[C@H](NC(=O)CNC(=O)c1ccc(S(N)(=O)=O)cc1)C(=O)O`, the figure is 170 nM.
`COc1ccc(CC(NC(=O)CNC(=O)c2ccc(S(N)(=O)=O)cc2)C(=O)O)cc1` (configuration not stated) returned a Kd of 170 nM.
As for `NS(=O)(=O)c1ccc(C(=O)NC(Cc2ccccc2)C(=O)O)cc1` (configuration not stated), the figure is 13 nM; as for `C[C@H](NC(=O)CNC(=O)CNC(=O)CNC(=O)c1ccc(S(N)(=O)=O)cc1)C(=O)O`, 300 nM.
To `CC(C)(C)C(NC(=O)c1ccc(S(N)(=O)=O)cc1)C(=O)O` (configuration not stated) belongs 9 nM; to `NS(=O)(=O)c1ccc(C(=O)NCC(=O)N2CCCC2C(=O)O)cc1` (configuration not stated), 250 nM.
To `NS(=O)(=O)c1ccc(C(=O)NCC(=O)NC(Cc2ccc(F)cc2)C(=O)O)cc1` (configuration not stated) belongs 130 nM; to `CC(NC(=O)c1ccc(S(N)(=O)=O)cc1)C(=O)O` (configuration not stated), 120 nM.

The values above are taken from ChEMBL document CHEMBL1128987, “Benzenesulfonamide-peptide conjugates as probes for secondary binding sites near the active site of carbonic anhydrase” (Bioorg Med Chem Lett, 1996).
